# Results taken from US20140341837A1, “Ferrate and Povidone Iodine (PI) Composition” (Biolife, L.L.C., priority 2010, published 2014).
# How the values were obtained:
# [1] = standard hemostasis strength device; settings: povidone iodine at 10%
# Experimental: A mixture of various iron sources, chelation compounds, and active antimicrobials was tested using the recovered biofilm from WU according to the matrix in Table III.
# Each mixture was tested in a standard hemostasis strength device described in detail in FDA 510k filing, K080210, incorporated herein in its entirety, and in the standardized 96 unit biofilm eradication test device also described in the 510k filing. The results were indexed* to #12, the ferrate/resin/10% PI powder.
# [2] = stability of PI in the dry powder; assay type: physicochemical; settings: very dry environment of the powder
# Description: The PI is stable in this very dry environment.
# [3] = cited from earlier work
# [4] = on dilution; cited from earlier work
substance,measurement,setting,value
PVP-Iodine [PI],effect of PI addition on hemostatic efficiency,[1],does not affect the hemostatic efficiency
same,stability of PI,[2],stable
same,efficacy at concentrations of 5-10% PI,[3]; 5-10% PI,ineffective
same,I2 concentration of non-effective kill,[3]; pamphlet FIG. 2,< 0.001%
same,solution strength at maximum content of uncomplexed iodine,[4],0.1%
